BindingDB's records for doi:10.1016/S0893-133X(98)00099-2 (University of North Carolina, 1999)
pKi: −log10 of the molar value. Values joined by “and” are separate entries in the source; they are usually repeats but may differ in a detail not shown here. Equal entries are not always repeated.

How the values were obtained:
D(3) dopamine receptor = D(3) dopamine receptor (Rattus norvegicus, UniProt P19020)
D(4) dopamine receptor = target: T1, D(4) dopamine receptor (Rattus norvegicus, UniProt P30729)
T1 sequence (P30729 whole entry): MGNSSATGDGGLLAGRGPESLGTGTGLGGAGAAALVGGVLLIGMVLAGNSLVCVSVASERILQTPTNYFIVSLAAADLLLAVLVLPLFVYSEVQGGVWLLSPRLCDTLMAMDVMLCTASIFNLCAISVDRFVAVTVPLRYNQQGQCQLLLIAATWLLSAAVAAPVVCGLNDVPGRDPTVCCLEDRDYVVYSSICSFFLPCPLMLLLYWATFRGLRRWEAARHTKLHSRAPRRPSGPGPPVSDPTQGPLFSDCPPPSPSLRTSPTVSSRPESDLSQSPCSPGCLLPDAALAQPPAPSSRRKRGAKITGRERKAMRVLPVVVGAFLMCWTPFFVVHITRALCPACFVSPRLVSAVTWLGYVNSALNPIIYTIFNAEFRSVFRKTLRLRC

[1] = target: 5-hydroxytryptamine receptor 6 (Rattus norvegicus, UniProt P31388)
D(1B) dopamine receptor = D(1B) dopamine receptor (Rattus norvegicus, UniProt P25115)
[2] = target: 5-hydroxytryptamine receptor 7 (Rattus norvegicus, UniProt P32305)
D(1A) dopamine receptor = D(1A) dopamine receptor (Rattus norvegicus, UniProt P18901)
D(1A) dopamine receptor, sequence (P18901 whole entry): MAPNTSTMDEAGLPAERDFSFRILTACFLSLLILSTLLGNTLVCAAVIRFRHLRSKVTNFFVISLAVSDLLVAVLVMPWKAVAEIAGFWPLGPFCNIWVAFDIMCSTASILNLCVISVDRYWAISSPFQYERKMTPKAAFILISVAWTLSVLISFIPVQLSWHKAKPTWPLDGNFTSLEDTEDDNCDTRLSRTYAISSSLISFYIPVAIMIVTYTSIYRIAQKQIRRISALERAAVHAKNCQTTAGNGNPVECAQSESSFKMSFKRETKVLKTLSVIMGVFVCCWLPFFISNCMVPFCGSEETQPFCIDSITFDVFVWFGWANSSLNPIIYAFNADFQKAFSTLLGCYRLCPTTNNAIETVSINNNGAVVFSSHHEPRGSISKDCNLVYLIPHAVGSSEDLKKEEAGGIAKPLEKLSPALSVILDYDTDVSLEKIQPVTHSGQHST

D(3) dopamine receptor, sequence (P19020 whole entry): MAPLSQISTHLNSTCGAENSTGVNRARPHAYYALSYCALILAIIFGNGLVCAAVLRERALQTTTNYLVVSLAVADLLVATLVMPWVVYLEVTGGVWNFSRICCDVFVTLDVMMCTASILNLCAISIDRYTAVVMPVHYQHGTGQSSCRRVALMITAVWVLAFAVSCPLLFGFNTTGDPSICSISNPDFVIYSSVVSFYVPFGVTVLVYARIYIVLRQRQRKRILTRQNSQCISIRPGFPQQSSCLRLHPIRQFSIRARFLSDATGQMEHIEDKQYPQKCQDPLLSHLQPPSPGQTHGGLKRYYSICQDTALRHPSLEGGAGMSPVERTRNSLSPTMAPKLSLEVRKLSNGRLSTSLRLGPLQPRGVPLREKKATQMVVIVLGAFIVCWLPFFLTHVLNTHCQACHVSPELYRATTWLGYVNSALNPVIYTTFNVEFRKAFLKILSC
D(1B) dopamine receptor, sequence (P25115 whole entry): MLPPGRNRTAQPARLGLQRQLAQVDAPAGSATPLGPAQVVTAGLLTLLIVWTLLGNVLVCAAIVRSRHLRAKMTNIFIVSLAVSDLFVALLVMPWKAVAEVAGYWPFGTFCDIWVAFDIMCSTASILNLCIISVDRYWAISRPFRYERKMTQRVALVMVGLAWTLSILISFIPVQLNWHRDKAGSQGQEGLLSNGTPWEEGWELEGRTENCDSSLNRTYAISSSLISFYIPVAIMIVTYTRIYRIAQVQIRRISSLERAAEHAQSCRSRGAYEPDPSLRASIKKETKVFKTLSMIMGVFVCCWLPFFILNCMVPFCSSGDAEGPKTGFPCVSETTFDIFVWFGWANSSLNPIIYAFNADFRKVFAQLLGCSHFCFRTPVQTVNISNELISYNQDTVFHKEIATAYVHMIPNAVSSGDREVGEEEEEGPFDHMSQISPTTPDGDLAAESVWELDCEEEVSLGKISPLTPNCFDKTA
5-hydroxytryptamine receptor 7, sequence (P32305 whole entry): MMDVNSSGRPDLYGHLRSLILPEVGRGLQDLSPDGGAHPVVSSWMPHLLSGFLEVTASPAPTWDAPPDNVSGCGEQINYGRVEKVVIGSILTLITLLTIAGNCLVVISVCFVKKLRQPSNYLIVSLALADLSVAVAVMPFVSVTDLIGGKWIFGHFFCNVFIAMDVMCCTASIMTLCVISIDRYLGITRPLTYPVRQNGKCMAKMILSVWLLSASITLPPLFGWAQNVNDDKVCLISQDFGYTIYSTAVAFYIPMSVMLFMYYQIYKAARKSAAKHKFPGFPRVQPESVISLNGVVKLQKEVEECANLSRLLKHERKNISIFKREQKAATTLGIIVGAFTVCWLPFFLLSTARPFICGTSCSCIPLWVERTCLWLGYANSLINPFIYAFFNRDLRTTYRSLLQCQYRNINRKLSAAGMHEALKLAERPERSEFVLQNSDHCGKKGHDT
5-hydroxytryptamine receptor 6, sequence (P31388 whole entry): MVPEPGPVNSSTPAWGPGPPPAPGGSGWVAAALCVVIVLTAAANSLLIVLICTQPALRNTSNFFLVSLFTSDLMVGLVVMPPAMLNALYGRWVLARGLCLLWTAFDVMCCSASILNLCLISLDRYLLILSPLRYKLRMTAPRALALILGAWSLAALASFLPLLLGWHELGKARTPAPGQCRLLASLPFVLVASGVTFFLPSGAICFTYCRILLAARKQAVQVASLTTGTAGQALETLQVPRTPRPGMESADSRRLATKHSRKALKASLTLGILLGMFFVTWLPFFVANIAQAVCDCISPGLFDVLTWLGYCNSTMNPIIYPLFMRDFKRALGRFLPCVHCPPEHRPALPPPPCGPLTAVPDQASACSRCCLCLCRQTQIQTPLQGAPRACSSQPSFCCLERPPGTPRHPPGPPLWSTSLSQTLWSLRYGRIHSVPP

Row | SMILES | pKi (D(3) dopamine receptor) | pKi (D(4) dopamine receptor) | pKi [1] | pKi (D(1B) dopamine receptor) | pKi [2] | pKi (D(1A) dopamine receptor)
1 | CCc1cc(Cl)c(OC)c(C(=O)NC[C@@H]2CCCN2CC)c1O [3-Chloro-5-ethyl-N-((S)-1-ethyl-pyrrolidin-2-ylmethyl)-6-hydroxy-2-methoxy-benzamide] | 9.44 and 9.85 | 7.19 |  |  |  | 
2 | O=C1CCc2ccc(OCCCCN3CCN(c4cccc(Cl)c4Cl)CC3)cc2N1 [7-{4-[4-(2,3-dichlorophenyl)piperazin-1-yl]butoxy}-3,4-dihydroquinolin-2(1H)-one] |  |  | 6.79 |  |  | 
3 | Cc1c(O)ccc(N2CCN(CCCCOc3ccc4c(c3)NC(=O)CC4)CC2)c1C [7-{4-[4-(4-hydroxy-2,3-dimethylphenyl)piperazin-1-yl]butoxy}-1,2,3,4-tetrahydroquinolin-2-one] | 8.35 and 8.79 | 6.92 |  | < 5.00 | 6.66 | 6.34
4 | Cc1cccc(N2CCN(CCCOc3ccc4ccc(=O)[nH]c4c3)CC2)c1C [NSC_163839] | 7.74 and 7.09 | 6.55 | 6.17 | < 5.00 | 7.66 | < 5.00
